What all share (assay): relative viability (nuclei count vs DMSO), 5 days (fraction); higher = more cells survive
Compound in experiment [1]: Cc1ccc(F)c(NC(=O)Nc2ccc(-c3cccc4[nH]nc(N)c34)cc2)c1 [Linifanib] + COc1cc2c(Oc3ccc(NC(=O)C4(C(=O)Nc5ccc(F)cc5)CC4)cc3F)ccnc2cc1OCCCN1CCOCC1 [Foretinib] (partner 0.25 µM)
The essentials: (§1)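 After 5 days of treatment, lung cancer cells in 1536-well plates were fixed and stained in a single step (final 0.05% Triton X-100, 1% formaldehyde, 1 ug/ml Hoechst) and their nuclei counted on 4× images. Treatment had been applied by pin tool the day after seeding as one drug alone or as a fixed anchor-drug dose with five library-drug doses (not always all listed) in √10 steps. Relative viability is the nuclei count of treated wells divided by that of vehicle wells, and values are medians of duplicate plates.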

Compound in experiment [2]: Cc1ccc(F)c(NC(=O)Nc2ccc(-c3cccc4[nH]nc(N)c34)cc2)c1 [Linifanib] + Nc1nc2[nH]cc(CCc3ccc(C(=O)N[C@@H](CCC(=O)O)C(=O)O)cc3)c2c(=O)[nH]1 [Pemetrexed] (partner 0.2 µM)
In a few lines:
as §1

Compound in experiment [3]: Cc1ccc(F)c(NC(=O)Nc2ccc(-c3cccc4[nH]nc(N)c34)cc2)c1 [Linifanib] + Cc1nc(Nc2ncc(C(=O)Nc3c(C)cccc3Cl)s2)cc(N2CCN(CCO)CC2)n1 [Dasatinib] (partner 0.075 µM)
The essentials:
as §1

Compound in experiment [4]: Cc1ccc(F)c(NC(=O)Nc2ccc(-c3cccc4[nH]nc(N)c34)cc2)c1 [Linifanib] + CC(=O)c1c(C)c2cnc(Nc3ccc(N4CCNCC4)cn3)nc2n(C2CCCC2)c1=O [Palbociclib] (partner 0.5 µM)
The essentials: as §1

Compound in experiment [5]: Cc1ccc(F)c(NC(=O)Nc2ccc(-c3cccc4[nH]nc(N)c34)cc2)c1 [Linifanib] + COc1cccc2cc(-c3nc([C@H]4CC[C@H](C(=O)O)CC4)n4ncnc(N)c34)[nH]c12 [OSI-027] (partner 0.5 µM)
The essentials:
as §1

Compound in experiment [6]: Cc1ccc(F)c(NC(=O)Nc2ccc(-c3cccc4[nH]nc(N)c34)cc2)c1 [Linifanib] + C[C@@H](Oc1cc(-c2cnn(C3CCNCC3)c2)cnc1N)c1c(Cl)ccc(F)c1Cl [Crizotinib] (partner 1 µM)
The essentials:
as §1

Turning to HCC-366, the relative viability in experiment [1] (first compound 0.03162 µM) is 1.01; in experiment [1] (first compound 0.1 µM) it was 0.981; in experiment [1] (first compound 0.3162 µM) it was 0.826; in experiment [2] (first compound 0.03162 µM), 0.159; in experiment [2] (first compound 0.1 µM) it was 0.15; in experiment [2] (first compound 0.3162 µM), 0.139. Also, the relative viability was 0.554 in experiment [3] (first compound 0.03162 µM); 0.648 in experiment [3] (first compound 0.1 µM); 0.582 in experiment [3] (first compound 0.3162 µM); 0.398 in experiment [4] (first compound 0.03162 µM); 0.427 in experiment [4] (first compound 0.1 µM); 0.373 in experiment [4] (first compound 0.3162 µM). Besides, the relative viability in experiment [5] (first compound 0.03162 µM) came to 0.898; in experiment [5] (first compound 0.1 µM), 1.29; in experiment [5] (first compound 0.3162 µM), 0.795; in experiment [6] (first compound 0.03162 µM), 0.558; in experiment [6] (first compound 0.1 µM) it was 0.69; in experiment [6] (first compound 0.3162 µM), 0.454.
Take NCI-H1355: the relative viability stood at 0.994 in experiment [1] (first compound 0.03162 µM); 1.04 in experiment [1] (first compound 0.1 µM); 0.941 in experiment [1] (first compound 0.3162 µM); 1.07 in experiment [2] (first compound 0.03162 µM); 1.13 in experiment [2] (first compound 0.1 µM); 1.08 in experiment [2] (first compound 0.3162 µM). For the same cell line, the relative viability was determined as 0.76 in experiment [3] (first compound 0.03162 µM); 0.859 in experiment [3] (first compound 0.1 µM); 0.697 in experiment [3] (first compound 0.3162 µM); 0.398 in experiment [4] (first compound 0.03162 µM); 0.411 in experiment [4] (first compound 0.1 µM); 0.389 in experiment [4] (first compound 0.3162 µM). For the same cell line, the relative viability in experiment [5] (first compound 0.03162 µM) came to 0.418; in experiment [5] (first compound 0.1 µM), 0.497; in experiment [5] (first compound 0.3162 µM), 0.434; in experiment [6] (first compound 0.03162 µM), 1.04; in experiment [6] (first compound 0.1 µM), 1.02; in experiment [6] (first compound 0.3162 µM), 1.14.
Regarding LU99A, the relative viability came to 0.856 in experiment [1] (first compound 0.03162 µM); 0.973 in experiment [1] (first compound 0.1 µM); 0.826 in experiment [1] (first compound 0.3162 µM); 0.182 in experiment [2] (first compound 0.03162 µM); 0.171 in experiment [2] (first compound 0.1 µM); 0.202 in experiment [2] (first compound 0.3162 µM). Further, the relative viability in experiment [3] (first compound 0.03162 µM) is 0.547; in experiment [3] (first compound 0.1 µM) it was 0.66; in experiment [3] (first compound 0.3162 µM), 0.488; in experiment [4] (first compound 0.03162 µM), 0.457; in experiment [4] (first compound 0.1 µM), 0.464; in experiment [4] (first compound 0.3162 µM), 0.408. In addition, the relative viability came to 0.323 in experiment [5] (first compound 0.03162 µM); 0.326 in experiment [5] (first compound 0.1 µM); 0.338 in experiment [5] (first compound 0.3162 µM); 0.61 in experiment [6] (first compound 0.03162 µM); 0.57 in experiment [6] (first compound 0.1 µM); 0.558 in experiment [6] (first compound 0.3162 µM).

The values are drawn from the supplement of paper PMC10307832.
